The values below are quoted from earlier work in US12458645B2, “Pediatric powder for oral suspension containing antiviral agent and method for the preparation thereof” (PHARMATHEN S.A., priority 2014, dated 2025).

Structures can show the parent of a compound that is named as a salt.

For series [1] the following is noted: in words.
The conditions of series [2]: in words. This is another data set of the same source.

Consider `CC(C)[C@H](N)C(=O)OCCOCn1cnc2c(=O)[nH]c(N)nc21` [Valaciclovir hydrochloride, L-valine, 2-[(2-amino-1,6-dihydro-6-oxo-9H-purin-9-yl)methoxy] ethyl ester, mono hydrochloride], for which, in series [1], the solubility in dichloromethane result is reported as “insoluble in dichloromethane” and the solubility in water entry is given as “soluble in water”.

As for `Nc1nc2c(ncn2COCCO)c(=O)[nH]1` [acyclovir, Acyclovir], the oral bioavailability result in series [2] is “poor oral bioavailability”.
